Laboratory results from EP0813872A1, “Berberine derivates for inhibiting hsp27 production” (Kureha Chemical Industry Co., Ltd., priority 1996, dated 1997).
Counter-ions that a name gives are not always drawn.

Tested on: HSP27
Test: Inhibition of HSP27 production in heat-shocked human cancer cell lines (Western blotting)
Type: cell-based
Details: Western blot, 20 µM, control showed a single band
Experimental: The following various human cancer cell lines were cultured under 5% CO2, at 37 °C, except for the heat shock treatment period. The lung cancer cell line H69 (ATCC HTB 119), the gastric cancer cell line KATO III (ATCC HTB 103), the colon cancer cell line COLO 205 (ATCC CCL 222), and the prostate cancer cell line DU145 (ATCC HTB 81) were cultured in an RPMI1640 medium containing 10% inactivated fetal bovine serum (hereinafter referred to as FBS).
The uterine cancer cell line HeLa S3 (ATCC CCL 2.2) was cultured in an MEM medium containing 10% inactivated FBS.
The neuroblastoma cell line SK-N-MC (ATCC HTB 10) was cultured in an MEM medium containing non-essential amino acids (L-alanine = 8.9 mg/l, L-asparagine·H2O = 15.0 mg/l, L-aspartic acid = 13.3 mg/l, L-glutamic acid = 14.7 mg/l, glycine = 7.5 mg/l, L-proline = 11.5 mg/l and L-serine = 10.5 mg/l) and 10% inactivated FBS.
The berberine hydrochloride of the formula (III) (the final concentration = 20 µM: Matsuura Yakugyo) was added to each medium of the above human cancer cell lines 2 days after the inoculation. After the berberine hydrochloride treatment for 24 hours, a heat shock was applied at 45 °C for 15 minutes, and the cells were then cultured at 37 °C overnight. The control tests were carried out by performing the above procedures except that the berberine hydrochloride was not added.
The cells treated in the above (2) were homogenized, and the amounts of HSP27 produced were measured by the Western blotting method.
The cells treated in the above (2) were washed with phosphate buffered physiological saline [composition: KC1 = 0.2 g/l, KH2PO4 = 0.2 g/l, NaCl = 8 g/1, Na2HPO4 (anhydrous) = 1.15 g/l: hereinafter referred to as PBS(-): COSMO BIO CO. Catalogue No. 320-01], and 1 ml of lysis buffer [1.0% NP-40, 0.15 M sodium chloride, 50 mM Tris-HCl (pH 8.0), 5 mM-EDTA, 2 mM-N-ethylmaleimide, 2 mM phenylmethylsulfonyl fluoride, 2 µg/ml leupeptin, and 2 µg/ml pepstatin] was added. The whole was allowed to stand for 20 minutes on ice, and then centrifuged at 4 °C and 12000 rpm for 20 minutes. The resulting supernatant (10 µl) was added to 790 µl of PBS(-), and then 200 µl of a protein assay dye reagent solution (Dye Reagent Concentrate: Bio-Rad Laboratories, Catalogue No. 500-0006) was added. The whole was allowed to stand at room temperature for 5 minutes, and the absorbance at 595 nm was measured to determine the amounts of proteins.
For the SDS-polyacrylamide gel electrophoresis (SDS-PAGE) of the samples, the protein concentration of which were measured, aliquots containing the same amount of protein were loaded onto the gel. The SDS-PAGE was performed according to the Laemmli method (Laemmli, […]). After the electrophoresis, the blotting and then blocking were carried out. More particularly, the gel was brought into contact with a 0.45 µm nitrocellulose membrane (Schleicher & Schuell, Catalogue No. 401196) at room temperature and 100 V, using a protein-transferring apparatus (Trans-Blot Electrophoretic Transfer Cell: Bio-Rad), and blotting was carried out for 3 hours. The blotting buffer used was prepared by adding methyl alcohol to Tris-glycine buffer (pH 8.5) consisting of 0.025 M Tris and 0.192 M glycine (Tris Gly Running and Blotting Buffer; Enprotech, Mass., USA; Catalogue No. SA100034), so that the concentration of methyl alcohol became 20%. After blotting, the nitrocellulose membrane was incubated in a 10% skimmed milk-PBS(-) solution at room temperature for 30 minutes, to block non-specific bindings.
After blocking, the first antibody reaction was carried out on the nitrocellulose membrane, using a screener blotter (Sanplatec), and the anti-human-HSP27 mouse monoclonal antibody (StressGen, Victoria, B.C., Canada, Catalogue No. SPA-800). […]

SMILES: COc1ccc2cc3[n+](cc2c1OC)CCc1cc2c(cc1-3)OCO2 [berberine hydrochloride]
- band of the molecular weight of approximately 27 kDa (colon cancer cell line COLO 205): faint in comparison with the control tests
- band of the molecular weight of approximately 27 kDa (gastric cancer cell line KATO III): faint in comparison with the control tests
- band of the molecular weight of approximately 27 kDa (lung cancer cell line H69): no band of the molecular weight of approximately 27 kDa was detected
- band of the molecular weight of approximately 27 kDa (neuroblastoma cell line SK-N-MC): no band of the molecular weight of approximately 27 kDa was detected
- band of the molecular weight of approximately 27 kDa (prostate cancer cell line DU145): no band of the molecular weight of approximately 27 kDa was detected
- band of the molecular weight of approximately 27 kDa (uterine cancer cell line HeLa S3): no band of the molecular weight of approximately 27 kDa was detected
